Test results taken from patent publication US20170065670A1, “METHODS FOR TREATING IMMUNE MEDIATED NEUROLOGICAL DISEASES” (Trinity Therapeutics, Inc., priority 2005, published 2017).

How the values were obtained:
[1] = tested on: human C1q; assay: Reverse ELISA: inhibition of PAP immune complex binding to C1q coated plates; settings: summary of Table 1
Text: (§1) For this reason, a “reverse ELISA” technique was used to assess binding of the Fc region to ligands that bind to immune complexed IgG Fc. In these assays, the enzyme (HRP) was not covalently conjugated to the Fc portion of the secondary antibody. Rather, a preformed immune complex of peroxidase-rabbit (or mouse) anti-peroxidase IgG (“PAP” complex) was used. […] In the reverse ELISA system, an Fc CH2-CH3 cleft binding ligand (e.g., purified human C1q) was bound to microwell plates. In the absence of competitor, PAP complexes bound to the immobilized ligand and the reaction between HRP and its substrate produced a signal. This signal was reduced by polypeptides and compounds, such as those provided herein, that inhibited PAP binding to the immobilized ligand.
PAP complexes were formed by mixing 2 μl of rabbit anti-peroxidase (Sigma Chemicals, St. Louis, Mo.) with 50 μl of peroxidase (Sigma-Aldrich, St. Louis, Mo.) in 1 ml distilled water. PAP (100 μl) were pre-incubated with 100 μl of peptide or human C1q (Quidel Corp., San Diego, Calif.) for one hour. The C1q/PAP and peptide/PAP mixtures (100 μl) were then incubated with C1q coated plates for 30 minutes. After washing, plates were incubated with 2-2′-azinobis-3-ethylbenzthiazoline-6-sulfonate (ATBS; Quidel Corp.) for 15 minutes and read at 405 nm.

[2] = tested on: human wt tau protein (441 residues); assay: Reverse ELISA: inhibition of immune complexed IgG (PAP) binding to wt tau
Text: as §1
PAP complexes were formed by mixing 2 μl of rabbit anti-peroxidase with 50 μl of peroxidase in 1 ml distilled water. PAP (100 μl) were pre-incubated with 100 μl of peptide for one hour. Control PAP (200 μl) also was incubated for one hour. 100 μl of either PAP or PAP/peptide was added to Falcon microtiter plates that had been coated for 24 hours with 16.7 μg/ml human wt tau protein (441 residues; Sigma-Aldrich). The PAP or peptide/PAP mixtures (100 μl) were added after one hour to tau coated plates and incubated for 60 minutes. After washing, plates were incubated with ATBS for 15 minutes, and read at 405 nm.

[3] = tested on: human wt α-synuclein; assay: Reverse ELISA: inhibition of immune complexed IgG (PAP) binding to wt α-synuclein
Text: as §1
PAP complexes were formed mixing 2 μl of rabbit anti-peroxidase (Sigma) with 50 μl of peroxidase (Sigma) in 1 ml distilled water. PAP (100 μl) were pre-incubated with 100 μl of peptide for one hour. Control PAP (200 μl) also was incubated for one hour. 100 μl of either PAP or PAP/peptide was added to Falcon microtiter plates that had been coated for 24 or 48 hours with 167 μg/ml human wt α-synuclein (Sigma-Aldrich), and the plates were incubated for 60 minutes. After washing, plates were incubated with ATBS for 30 minutes and then read at 405 nm.

[4] = tested on: human wtSOD1; assay: Reverse ELISA: inhibition of immune complexed IgG (PAP) binding to wt SOD1; settings: for wt SOD1 (read at 405 nm): plates coated 24 h with 0.8 μg/ml human wtSOD1, PAP/peptide 60 min, lower = more inhibition, positive control 2.900; for inhibition of wt SOD1 binding to PAP (in words): summary of Table 3
Text: as §1
(§2) PAP complexes were formed as described in Example 2. PAP (100 μl) were pre-incubated with 100 μl of peptide for one hour, and control (200 μl of PAP) also was incubated for one hour. 100 μl of either PAP or PAP/peptide was added to Falcon microtiter plates that had been coated for 24 hours with either 0.8 μg/ml human wtSOD1 (Sigma-Aldrich) or apo (non Cu, Zn containing) monomeric mutant SOD1 C57S (mSOD1C57S). The PAP or peptide/PAP mixtures (100 μl) were added after one hour to either wt SOD1 or mSOD1C57S coated plates for 60 minutes. After washing, plates were incubated with ATBS for 15 minutes and read at 405 nm.

[5] = tested on: FcγIIa; assay: Reverse ELISA: inhibition of PAP immune complex binding to FcγIIa coated plates; settings: summary of Table 2, FcR overall (FcγIIa, FcγIIb, FcγIII)
Text: as §1
Once the reverse ELISA protocol was established using the C1q assay, the assay was redesigned using FcγIIa, FcγIIb and FcγIII in place of C1q. Highly purified FcγIIa, FcγIIb and FcγIII were immunoadsorbed onto plastic microwells. […]
Falcon microtiter plates were coated with 1:10 dilutions of highly purified FcγIIa, FcγIIb and FcγIII and incubated for 24 hours. […] After washing, plates were incubated with ABTS substrate for 15 minutes and read at 405 nm.

[6] = tested on: apo (non Cu, Zn containing) monomeric mutant SOD1 C57S (mSOD1C57S); assay: Reverse ELISA: inhibition of immune complexed IgG (PAP) binding to mutant SOD1; settings: for mSOD1C57S (read at 405 nm): plates coated 24 h with mSOD1C57S, PAP/peptide 60 min, lower = more inhibition, positive control […]; for inhibition of mSOD1C57S binding to PAP (in words): summary of Table 3
Text: as §1, §2

[7] = tested on: human wt β amyloid peptide 1-40; assay: Reverse ELISA: inhibition of immune complexed IgG (PAP) binding to wt β-amyloid peptide 1-40; settings: summary of Table 7
Text: as §1
Different fragments of the Aβ peptide contribute to the amyloid plaques pathognomic for AD, and these Aβ fragments appear to stimulate microglial activation and subsequent AD neuropathology. Thus, experiments were conducted to test Aβ 1-40 for binding to immune complexes, and to determine whether the inhibitors described herein can inhibit binding of PAP immune complexes to Aβ peptide. PAP complexes were prepared by mixing 2 μl of rabbit anti-peroxidase with 50 μl of peroxidase in 1 ml distilled water. […] After washing, plates were incubated with ATBS for 15 minutes and read at 405 nm.

[8] = biological target: Human wt α-synuclein (Sigma-Aldrich) (human) (UniProt P37840); assay: reverse ELISA: PAP without peptide on α-synuclein-coated plate (24 h coating)
[9] = biological target: Highly purified FcγIIa (UniProt P12318); assay: reverse ELISA: PAP without peptide on FcγIIa-coated plate
Chain of Highly purified FcγIIa (P12318 34-217 limits assumed): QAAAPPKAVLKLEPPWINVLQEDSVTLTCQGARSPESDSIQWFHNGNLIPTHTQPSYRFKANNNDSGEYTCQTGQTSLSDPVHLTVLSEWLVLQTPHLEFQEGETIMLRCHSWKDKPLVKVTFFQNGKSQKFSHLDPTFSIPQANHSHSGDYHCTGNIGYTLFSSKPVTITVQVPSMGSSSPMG

[10] = biological target: Preformed immune complex of peroxidase-rabbit anti-peroxidase IgG (PAP complex) (horseradish) (UniProt P00433); assay: reverse ELISA competition: peptide pre-incubated with PAP; competitor: immobilised human wt SOD1
Chain of Preformed immune complex of peroxidase-rabbit anti-peroxidase IgG (PAP complex) (horseradish) (P00433 31-338, one chain of several): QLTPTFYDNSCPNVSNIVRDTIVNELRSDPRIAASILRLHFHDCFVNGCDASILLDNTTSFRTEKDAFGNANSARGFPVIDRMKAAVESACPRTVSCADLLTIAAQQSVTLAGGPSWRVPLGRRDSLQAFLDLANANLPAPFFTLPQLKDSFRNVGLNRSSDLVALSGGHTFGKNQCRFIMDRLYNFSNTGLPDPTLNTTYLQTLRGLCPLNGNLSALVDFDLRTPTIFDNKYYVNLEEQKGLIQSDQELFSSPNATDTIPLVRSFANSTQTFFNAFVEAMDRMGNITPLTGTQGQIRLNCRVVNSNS

[11] = biological target: Preformed immune complex of peroxidase-rabbit anti-peroxidase IgG (PAP complex) (horseradish) (UniProt P00433); assay: reverse ELISA competition: peptide pre-incubated with PAP; competitor: immobilised human wt α-synuclein, plate coated 48 h
[12] = biological target: Preformed immune complex of peroxidase-rabbit anti-peroxidase IgG (PAP complex) (horseradish) (UniProt P00433); assay: reverse ELISA competition: peptide pre-incubated with PAP; competitor: immobilised human wt α-synuclein, plate coated 24 h
[13] = biological target: Preformed immune complex of peroxidase-rabbit anti-peroxidase IgG (PAP complex) (horseradish) (UniProt P00433); assay: reverse ELISA competition: peptide pre-incubated with PAP; competitor: immobilised mSOD1C57S

In the case of APPCARHLGELVWCT, the “inhibition of C1q binding (rank in words)” value [1] is reported as “next best result”.

With APPDCAWHLGELVWCT the “Wt tau protein (read at 405 nm)” value ([2]; plates coated 24 h with 16.7 μg/ml tau, lower = more inhibition, positive control 0.695, substrate only 0.060) was 0.059, the “inhibition of human wt tau protein binding to PAP (rank in words)” value ([2]; summary of Table 6) was “greatest inhibition” and the “Wt α-synuclein (read at 405 nm)” value ([3]; plates coated 24 h with 167 μg/ml α-synuclein, lower = more inhibition, positive control 1.433, substrate only 0.061) was 0.088. The “inhibition of α-synuclein binding to PAP (rank in words)” value ([3]; summary of Table 5) was “greatest inhibition”, the “wt SOD1 (read at 405 nm)” value [4] was 0.277 and the “inhibition of wt SOD1 binding to PAP (in words)” value (from here on “inhibition of wt SOD1 binding”) [4] was “greatest inhibition”. The “inhibition of wt SOD1 binding” value ([4]; listed as peptide 16) was “best inhibition”, the “inhibition of FcR binding to PAP (rank in words)” value [5] was “greatest inhibition” and the “inhibition of C1q binding (rank in words)” value [1] was “greatest inhibition”. For the same molecule, the “mSOD1C57S (read at 405 nm)” value [6] was 0.226, the “inhibition of mSOD1C57S binding to PAP (in words)” value (from here on “inhibition of mSOD1C57S binding”) [6] was “greatest inhibition” and the “inhibition of mSOD1C57S binding” value ([6]; listed as peptide 16) was “best inhibition”.

For DCAWHLGELVWCT, the “inhibition of human wt β amyloid peptide binding to PAP (rank in words)” value [7] was “greatest inhibition”, the “wt SOD1 (read at 405 nm)” value [4] was 0.292 and the “inhibition of wt SOD1 binding” value ([4]; listed as peptide 2) was “inhibited”. The “mSOD1C57S (read at 405 nm)” value [6] was 0.592 and the “inhibition of mSOD1C57S binding” value ([6]; listed as peptide 2) was “inhibited”.

In the case of “Preformed immune complex of peroxidase-rabbit anti-peroxidase IgG (PAP complex) (from UniProt P00433 31-338)”, the OD 405 nm [8] is reported as 1.43 OD and the OD 405 nm [9] is reported as 1.6 OD.

B1: Peptide … (SEQ ID NO:16) (peptide)
peptide: APPDCAWHLGELVWCT
B1 gave an OD 405 nm [10] of 0.277 OD, an OD 405 nm [11] of 0.136 OD and an OD 405 nm [12] of 0.088 OD. For the same molecule, the OD 405 nm [13] was 0.226 OD.
